From patent US20260167623A1 (NIKANG THERAPEUTICS, INC., priority 2022, published 2026) come the findings set out here.

Assay [1] deals with T1, CDK2 (Homo sapiens, UniProt P24941).
T1 construct: High-Throughput Measurement of Cellular Endogenous CDK2; endogenous in cells; host or cells: OVCAR3
The assay is described as follows: Inhibition of CDK2: phospho-Rb (S807/811) HTRF measurement in OVCAR3 cells, 24 h. In kind it is cell-based. To be noted: 24 h compound treatment, read-out: pRB_OVCAR3_24h. The procedure, abridged:
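OVCAR3 cells, seeded overnight, were exposed to compounds at 0.3 to 10,000 nM for 24 h, then lysed. Rb S807/811 phosphorylation read by HTRF (665/620 nm ratio) after 4 h detection at room temperature; data normalized to DMSO and IC50 from four-parameter logistic fit.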

Assay [2] concerns the target T1, CDK2. The assay is described as follows: High-throughput HTRF measurement of cellular endogenous CDK2 level (degradation, DC50/Dmax) in OVCAR3 cells, 6 h. In kind it is cell-based. To be noted: 6 h compound treatment, HTRF total CDK2, read-out: DC50_OVCAR3_6h. The method in brief: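 OVCAR3 cells were treated overnight after seeding with compounds at 0.03–1,000 nM for 6 h, then lysed. Total CDK2 was quantified by HTRF (d2- and Eu-cryptate anti-CDK2 antibodies, […] ratio) after overnight incubation at room temperature. Data normalized to DMSO (0%) and lysis buffer (100% degradation); DC50 from four-parameter logistic fit.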

With `O=C1CCN(c2noc3cc(C4CCN(CC5CCN(c6cccc(S(=O)(=O)N7CCC(Nc8ncc(C(F)(F)F)cn8)CC7)c6)CC5)CC4)ccc23)C(=O)N1` [Example 222, 1-(6-(1-((1-(3-((4-((5-(trifluoromethyl)pyrimidin-2-yl)amino)piperidin-1-yl)sulfonyl)phenyl)piperidin-4-yl)methyl)piperidin-4-yl)benzo[d]isoxazol-3-yl)dihydropyrimidine-2,4(1H,3H)-dione], the IC50 on CDK2 [1] was 1 to 100 nM. The DC50 on CDK2 [2] fell in the range of 1 to 10 nM.

As to `Cn1c(=O)n(C2CCC(=O)NC2=O)c2cccc(C3CCN(CC4CCN(c5cc(S(=O)(=O)N6CCC(Nc7ncc(C(F)(F)F)cn7)CC6)ccc5C#N)CC4)CC3)c21` (stereo not drawn) [Example 181, 2-(4-((4-(1-(2,6-dioxopiperidin-3-yl)-3-methyl-2-oxo-2,3-dihydro-1H-benzo[d]imidazol-4-yl)piperidin-1-yl)methyl)piperidin-1-yl)-4-((4-((5-(trifluoromethyl)pyrimidin-2-yl)amino)piperidin-1-yl)sulfonyl)benzonitrile], the IC50 at CDK2 [1] fell in the range of 1 to 100 nM. Besides, the DC50 at CDK2 [2] lay in the range of 1 to 10 nM.

With `Cn1nc(N2CCC(=O)NC2=O)c2ccc(C3CCN(CC(C)(C)Cc4cccc(S(=O)(=O)N5CCC(Nc6ncc(Cl)cn6)CC5)c4)CC3)cc21` [Example 54, 1-(6-(1-(3-(3-((4-((5-chloropyrimidin-2-yl)amino)piperidin-1-yl)sulfonyl)phenyl)-2,2-dimethylpropyl)piperidin-4-yl)-1-methyl-1H-indazol-3-yl)dihydropyrimidine-2,4(1H,3H)-dione], the IC50 at CDK2 [1] lay within 1 to 100 nM. For the same molecule, at CDK2 [2], the DC50 lay in the range of 1 to 10 nM.

On to `O=C1CCC(N2Cc3cc(N4CCN(Cc5cccc(S(=O)(=O)N6CCC(Nc7ncc(C(F)(F)F)cn7)CC6)c5)CC4)ccc3C2=O)C(=O)N1` (stereo not drawn) [Example 76, 3-(1-oxo-5-(4-(3-((4-((5-(trifluoromethyl)-pyrimidin-2-yl)amino)piperidin-1-yl)sulfonyl)benzyl)piperazin-1-yl)isoindolin-2-yl)piperidine-2,6-dione], for which the IC50 on CDK2 [1] lay in the range of 1 to 100 nM. For the same molecule, the DC50 at CDK2 [2] lay within 1 to 10 nM.

For `O=C1CCC(N2Cc3cc(N4CCC(N5CC(Oc6cccc(S(=O)(=O)N7CCC(Nc8ncc(C(F)(F)F)cn8)CC7)c6)C5)CC4)ccc3C2=O)C(=O)N1` (stereo not drawn) [Example 92, 3-(1-oxo-5-(4-(3-(3-((4-((5-(trifluoro-methyl)pyrimidin-2-yl)amino)piperidin-1-yl)sulfonyl)phenoxy)azetidin-1-yl)piperidin-1-yl)isoindolin-2-yl)piperidine-2,6-dione], the IC50 at CDK2 [1] lay in the range of 100 to 500 nM. In addition, the DC50 on CDK2 [2] fell in the range of 1 to 10 nM.

For `C=Cc1cnc(NC2CCN(S(=O)(=O)c3cccc(N4CCC(CN5CCC(c6ccc7c(N8CCC(=O)NC8=O)nn(C)c7c6)CC5)CC4)c3)CC2)nc1` [Example 208, 1-(1-methyl-6-(1-((1-(3-((4-((5-vinylpyrimidin-2-yl)amino)piperidin-1-yl)sulfonyl)phenyl)piperidin-4-yl)methyl)piperidin-4-yl)-1H-indazol-3-yl)dihydropyrimidine-2,4(1H,3H)-dione], on CDK2 [1], the IC50 fell in the range of 1 to 100 nM. The DC50 at CDK2 [2] fell in the range of 1 to 10 nM.
